# Reference: US20130338090A1, “Novel Compound Isolated from Allium tuberosum and Use Thereof as Antiviral Agent” (priority 2011, published 2013)
# Tested on: avian influenza virus (H5N1), A/Vietnam/1194/04(H5N1)-NIBRG-14 vaccine strain
# Type: cell-based
structure (smiles),measurement,value
"O=C(O)[C@H]1O[C@@H](Oc2cc(O)c3c(=O)cc(-c4ccc(O)cc4)oc3c2)[C@H](O)[C@@H](O)[C@@H]1O [Compound II, apigenin 7-O-β-D-glucuronopyranoside]",Activity,X (key: ◯: antiviral activity defined as a decrease of 4 log units; X: antiviral activity defined as a decrease of 4 log units)
same,CPE inhibitory concentration,>10 µg/mL
same,log100TCID50/ml,0
"C[C@@H]1O[C@@H](OC[C@H]2O[C@@H](Oc3c(-c4ccc(O)cc4)oc4cc(O)cc(O)c4c3=O)[C@H](O)[C@@H](O)[C@@H]2O)[C@H](O)[C@H](O)[C@H]1O [Compound I, kaempferol 3-O-α-L-rhamnopyranosyl (1→6)-β-D-glucopyranoside]",Activity,◯ (key: ◯: antiviral activity defined as a decrease of 4 log units; X: antiviral activity defined as a decrease of 4 log units)
same,log100TCID50/ml,5
same,viral titer lower than that of the control group,4 log
